Laboratory results: article PMC4764977, “AZD8797 is an allosteric non-competitive modulator of the human CX3CR1 receptor” (Biochemical Journal, 2016)

How the values were obtained:
[1] = biological target: T1, CX3CR1 (RPMI-8226 cells) (Homo sapiens, UniProt P49238); test: Dynamic mass redistribution (DMR), RPMI-8226 cells; format: cell-based
T1 construct: RPMI-8226 cells, a human B-lymphocyte cell line endogenously expressing human CX3CR1; CCL-155; host or cells: RPMI-8226
T1 sequence (P49238 1-355): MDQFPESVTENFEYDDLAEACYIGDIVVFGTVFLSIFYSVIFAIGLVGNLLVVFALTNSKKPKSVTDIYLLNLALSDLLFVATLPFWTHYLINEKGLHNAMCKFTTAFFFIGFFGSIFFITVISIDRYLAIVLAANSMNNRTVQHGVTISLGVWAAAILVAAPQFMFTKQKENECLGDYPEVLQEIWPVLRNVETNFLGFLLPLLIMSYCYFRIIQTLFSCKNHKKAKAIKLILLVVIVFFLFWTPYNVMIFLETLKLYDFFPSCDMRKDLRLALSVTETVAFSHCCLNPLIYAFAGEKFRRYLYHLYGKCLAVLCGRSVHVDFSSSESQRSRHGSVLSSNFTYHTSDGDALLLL
Description: CHO-hCX3CR1 cells were seeded at 12000 cells per well in DMEM with 10% FBS and RPMI-8226 cells at 8000 cells per well in RPMI 1640 medium with GlutaMAX and 20% FBS on 384-well fibronectin-coated EPIC™ biosensor plates (Corning) and cultured at 37°C for 24 h. At 18–24 h prior to compound treatment, the medium was replaced with serum-free medium with or without 100 ng·ml^−1 PTX. Cells were then washed with assay buffer (HBSS, 20 mM HEPES (pH 7.4) and 0.01% BSA) and allowed to equilibrate at 26°C for 1 h inside the EPIC™ plate reader. Following equilibration, a baseline scan was performed before adding AZD8797 or CX3CL1 using a CyBi-Well vario (CyBio). Dynamic mass redistribution (DMR) was then measured during a 60 min scan. As in the [^35S]GTPγS binding assay, the final DMSO concentration was held constant at 1%.

[2] = biological target: T2, CX3CR1 (Homo sapiens, UniProt P49238); test: [3H]AZD8797 competition binding, CHO-hCX3CR1 membranes; design: host or cells: CHO-K1; details: 2 nM [3H]AZD8797, n=7
T2 sequence (P49238 1-355): T1 sequence (P49238 1-355)
Description: Adherent CHO-K1 cells stably expressing human CX3CR1 (CHO-hCX3CR1) were grown in F12 medium with GlutaMAX, 10% FBS (Sigma–Aldrich) and 400 μg·ml^−1 geneticin and harvested at 80% confluency. Cells were washed in PBS and lysed with an Ultra-Turrax Homogenizer in 50 mM Tris/HCl (pH 7.4) and 1 mM EDTA with Complete™ protease inhibitor (Roche). […] Protein concentration was determined using the BCA method (Thermo Fisher Scientific). […] The filter plate was washed in ice-cold 25 mM HEPES (pH 7.4), 5 mM MgCl2, 1 mM CaCl2 and 500 mM NaCl and dried at 50°C for 1 h. Scintillation cocktail, Optiphase Supermix (PerkinElmer) was added to each well and the radioactivity was measured using a MicroBeta Trilux reader (PerkinElmer). All analysis and calculations were performed using GraphPad Prism 6.01. Functional and competition binding data were analysed using non-linear regression and fitted to a sigmoidal dose-response with variable slope according to the following equation: […] where Y is the amount of radioligand bound (cpm) or functional effect, Top denotes maximal asymptotic binding, and Bottom denotes the minimal asymptotic binding. XC50 is either the EC50 or the IC50 value, and X is the logarithm of the test compound concentration. Ki values were calculated from IC50 values using the Cheng–Prusoff equation: […]

[3] = test system: CX3CR1; design: method as in PMID 24706865; details: cited from earlier work

In the case of `CC(C)C[C@H](CO)Nc1nc(S[C@@H](C)c2ccccc2)nc2nc(N)sc12` [AZD8797], the “Effect of PTX treatment on DMR signal” value ([1]; 100 ng·ml^−1 PTX) is reported as “reduced”, the EC50 ([1]; n=3) is reported as 410 nM and the Ki [2] is reported as 7.3 nM. The “Efficacy in rat model for multiple sclerosis” value [3] was “efficacy”.
